Series [1] can be described thus: Lactone ring stability in human plasma by HPLC. It is filed as in vitro ADME. As to conditions: 3 hours, 37° C., pH 7.5, 1 μM. On the procedure:
FIG. 13 depicts the improved stabilities of four novel homosilatecans of the current invention following incubation in PBS containing 30 mg/ml human serum albumin at 37° C. […] All the experiments of FIG. 14 were conducted in human plasma at 37° C. Plasma samples were continuously aerated by a stream of blood gas resulting in the maintenance of pH at values of 7.5±0.1.
(§1) HPLC solvents were from Fisher Scientific.
To characterize the stabilities of the novel silatecans of interest in human plasma, frozen plasma was incubated at 37° C. in order to thaw. Blood gas was bubbled through the plasma to adjust the pH close to 7.5. […] The samples were then allowed to incubate further at 37° C. […] Tubes were vortexed for 10 sec and centrifuged in a tabletop microcentrifuge at 8000 rpm for 45 sec. […] The sample was analyzed by HPLC as soon as possible. The data analysis was as described for drug in PBS only samples as described above. Blood gas was continuously bubbled through the plasma samples to pH at 7.5+/−[…].

Series [2] deals with MDA-MB-435 tumorigenic metastatic human breast cancer cells. Put plainly: Cytotoxicity, sulphorrhodamine B (SRB) assay. As to conditions: MDA-MB-435, 72 h, read-out: IC50 (w/o HSA). In kind it is cell-based. As for the experimental part: Cytotoxicity measurements were conducted using MDA-MB-435 tumorigenic human breast cancer cells. The cells were exposed to a range of drug concentrations for 72 hr exposure periods and then viability was assessed using a sulphorrhodamine B (SRB) assay. The SRB measures the total protein levels in the living cells. Proteins from dead cells are lysed and removed in the washing step before TCA fixation. However, it is possible that cells in the early stage of death still have their membrane integrity and therefore retain the protein contents inside. As a result, the optical density at 490 nm can sometimes be overestimated and the cytotoxicity underestimated. […] The SRB assay is now a well regarded assay and was recently approved by NCl as a standard assay for anticancer drug screening. […] Each IC50 value represents the average of three separate trials with each dosage level studied in triplicate.

Series [3] can be described thus: Fluorescence anisotropy titration, equilibrium binding to DMPG small unilamellar vesicles. It is filed as physicochemical. Particulars: negatively charged DMPG vesicles, PBS pH 7.4, 37° C.; K values subject to 10% uncertainty. On the procedure:
(§2) As a consequence of the brilliant fluorescence emissions from the newly synthesized homosilatecans (a summary of the spectral parameters can be found in Table 1), the lipid bilayer adsorption isotherms summarized in FIG. 4 were relatively free from any background signal. The method of fluorescence anisotropy titration was used to construct the adsorption isotherms. The experiments were conducted at drug concentrations of 1 μM in PBS buffer (37° C.). […] Because of the potential of the lactone ring of the homosilatecans and camptothecins to hydrolyze in PBS, anisotropy values at each lipid concentration were determined immediately (approx. 1 min.) following the addition of the lactone form of each agent to the liposome suspension as to minimize any possibility of conversion to the carboxylate form. Using drug concentrations of 1 μM and long pass filters to isolate emitted light from background signal (that is, scattered exciting light and extraneous fluorescence signal resulting from the possible presence of impurities), signal levels from drugs dissolved in PBS buffer were typically 99.97% in the absence of membrane and greater than 98% in the presence of membrane. Adsorption isotherms were used to determine overall association constants for the homosilatecan, silatecan, and camptothecin drugs. Overall association constants are defined as: K=[AB]/[AF][L] where [AB] represents the concentration of bound drug, [AF] represents the concentration of free drug, and [L] represents the total lipid concentration in the vesicle suspension. This equation is valid when the concentration of free lipid is approximately equal to the concentration of total lipid (that is, the concentration of free lipid is in significant excess over the concentration of bound drug). Provided this condition is satisfied, K may be determined from the inverse of the slope of a double reciprocal plot. In such a double reciprocal plot, 1/fraction of the total drug bound is plotted vs. 1/lipid concentration, with a y-intercept value of 1 (for a system displaying binding site homogeneity). Such double-reciprocal plots for the associations of the new homosilatecans analogs (both lactone and carboxylate forms) with DMPC and DMPG small unilamellar vesicle (SUV) preparations were linear with good correlation coefficients.
(§3) The studies summarized in Table 2 examine the structural basis of homosilatecan associations for lipid bilayers. Two types of membranes were included in these studies which were conducted under near physiological conditions of pH and temperature; these membranes include fluid-phase and electroneutral L-α-dimyristoylphosphatidyl-choline (DMPC); and fluid-phase and negatively-charged L-α-dimyristoylphosphatidylglycerol (DMPG). DMPC and DMPG have identical chain length but the charges on their head groups differ.
(§4) In the studies of Table 2, binding isotherms were constructed using the method of fluorescence anisotropy titration as discussed above, and K values were determined from the slopes of the double-reciprocal plots. The K values are subject to 10% uncertainty. One of the most striking features of the data contained in Table 2 is the strong modulation which can be achieved through the creation of A,B,E-ring modified camptothecins (for example, the homosilatecans known as DB-38, DB-90, and DB-91) or B,E-ring modified camptothecins (for example, the homosilatecan known as DB-81). Homosilatecans containing either a sole substitution at the 7 position or dual substitution at the 7 and 10 positions have been created and found to display very high lipophilicities. Included in Table 2 are camptothecin compounds (topotecan and camptothecin). For DB-81, the lipophilicity for DMPC membranes relative to corresponding value for topotecan increases over 1,400-fold. Data for these agents were included to show the highly lipophilic nature of the new homocamptothecins relative to compounds such as topotecan and camptothecin. […]
On the technique in general: Fluorescence polarisation rises when a labelled molecule tumbles more slowly, as on binding a larger partner.

Series [4] can be described thus: Lactone ring stability in PBS by HPLC. It is filed as physicochemical. As to conditions: 37° C., 1 μM. As for the experimental part:
FIG. 12 contrasts the improved stabilities of four novel homosilatecans of the present invention with their corresponding silatecan structure containing the α-hydroxylactone functionality. All the experiments of FIG. 12 were conducted in PBS at 37° C.
as §1
To determine the stabilities of homosilatecans in PBS, an aliquot of each of the homosilatecans in DMSO was added to phosphate buffered saline (PBS), pH 7.4 in a HPLC autosampler vial maintained at 37° C. in a water bath to result in final drug concentration of 1 μM. The drug-containing vial was quickly transferred to the autosampler maintained at 37° C. and aliquots analyzed at various time points. All the determinations were done in triplicate. The data was collected and analyzed using Waters Millenium software. The fraction of lactone was calculated using the peak area of lactone and carboxylate peak and using the lactone/carboxylate ratio.

Series [5] can be described thus: Lactone ring stability in mouse blood by HPLC. As to conditions: for Ratio of Lactone Level Mouse/Human / underestimation of human blood lactone level by mouse blood: blood; for Ratio of Lactone Level Mouse/Human: 3 hours of incubation; for Percent Lactone in Mouse Blood after 3 Hours of Incubation: pH 7.4, 37° C.; for underestimation of human blood lactone level by mouse blood: 3 hours.
Procedure: The hydrolysis kinetics of camptothecins in the presence of different blood components were determined by a quantitative C18 reversed-phase high-performance liquid chromatography (HPLC) assay modified from methodologies described previously in the literature cited above. The preparation of whole blood and fractionated blood samples was carried out as described previously. Crystallized HSA of high purity (>97%) from Sigma Chemical (St. Louis, Mo.) was used. HSA stock solutions were prepared in PBS buffer with a final pH of 7.40±0.05. HSA concentrations were determined by UV absorbance at 278 nm using an extinction coefficient of 39,800 M^−1 cm^−1 (Porter, 1992). All other agents were reagent grade and were used without further purification. High purity water provided by a Milli-Q UV PLUS purification system (Bedford, Mass.) was utilized in all experiments. HPLC solvents were from Fisher Scientific. Human plasma and red blood cells were obtained from Central Kentucky Blood Center. […] Blood from mice was collected in heparinized tubes and stored at 5-10° C. until use.
HPLC assays were performed either on a Waters Alliance 2690 HPLC system equipped with a temperature-controlled autosampler and Waters 474 scanning fluorescence detector. A second HPLC system was composed of a Waters HPLC system composed of 501 HPLC pumps, 717 Plus temperature-controlled autosampler and 470 scanning fluorescence detector. The HPLC assay procedures used for the homosilatecans are summarized below. Solvent A consisted of acetonitrile and Solvent B was 2% triethylammonium acetate, pH 5.5, with a flow rate of 1 ml/min. For DB-38 an isocratic elution was used: 33% Solvent A; 67% Solvent B; λex:345 nm and λem:518 nm. For DB-81 an isocratic elution was used: 56% Solvent A; 44% Solvent B; and λex:375 nm and λem:444 nm. For DB-90 an isocratic elution was used: 41% Solvent A; 59% Solvent B; λex:412 nm and λem:526 nm. For DB-91 an isocratic elution of 42% Solvent A, 58% Solvent B, and λex:392 nm and λem:562 nm.
To determine drug stability in whole blood, whole blood was incubated at 37° C. for 30 min and pH determined. Blood pH was adjusted to 7.4+/−0.5 using either 0.1 M KOH or 0.1 M HCl. Blood samples were incubated at 37° C. for 30 min and pH remeasured to ensure that it is within the range before an individual assay was started. Aliquots of blood (2 ml each) were removed and placed in three disposable glass test tubes and the tubes were incubated at 37° C. […] Incubation at 37° C. was continued and 150 μl aliquots were removed at different time points and added to 600 μl of cold methanol (−20° C.) in an eppendorf tube. The tube was then vortexed for 10 sec and centrifuged in a table top microcentrifuge at 8000 rpm for 45 sec. The Supernatant was removed and placed in an autosampler vial and the vial quickly added to the autosampler maintained at 4° C. The sample was analyzed immediately on the HPLC set-up. The data analysis was as described for the drug in PBS only samples.

The nature of series [6]: Fluorescence anisotropy titration, equilibrium binding to DMPC small unilamellar vesicles. In kind it is physicochemical. As to conditions: for KDMPC overall association constant: electroneutral DMPC vesicles, PBS pH 7.4, 37° C., K values subject to 10% uncertainty. As for the experimental part: as §2, §3, §4

Consider `CCC1(O)CC(=O)OCc2c1cc1n(c2=O)Cc2c-1nc1ccc(N)cc1c2[Si](C)(C)C` (racemic) [DB-38, 5-Ethyl-1,4,5,13-tetrahydro-5-hydroxy-10-amino-12-trimethylsilyl-3H,15H-oxepino[3′,4′:6,7]indolizino[1,2-b]quinoline-3,15-dione], for which the “% Lactone” value in series [1] is listed as 40.3 ± 2.1%; in series [4] (PBS pH 7.4, 3 hours) it was 82.8 ± 0.7%; in series [4] (PBS pH 7.4, 24 hours), 26.8 ± 2.3%. Moreover, the IC50 in series [2] was determined as 0.02 µM. Also, the “KDMPG overall association constant” value in series [3] is 800 M⁻¹. For the same compound, the “Ratio of Lactone Level Mouse/Human” value in series [5] was 1.3. Also, the “Percent Lactone in Mouse Blood after 3 Hours of Incubation” value (“Percent Lactone in Mouse Blood” below) in series [5] is reported as 72%. Further, the “KDMPC overall association constant” value in series [6] stood at 1400 M⁻¹.
Regarding `CCC1(O)CC(=O)OCc2c1cc1n(c2=O)Cc2c-1nc1ccccc1c2[Si](C)(C)C(C)(C)C` (racemic) [DB-81, 5-Ethyl-1,4,5,13-tetrahydro-5-hydroxy-12-tert-butyldimethylsilyl-3H,15H-oxepino[3′,4′:6,7]indolizino[1,2-b]quinoline-3,15-dione], the “% Lactone” value in series [1] is 85.0 ± 4.3%. Further, the IC50 in series [2] is 0.077 ± 0.013 µM. Also, the “KDMPG overall association constant” value in series [3] was 18500 M⁻¹. The “% Lactone” value in series [4] (PBS pH 7.4, 3 hours) is on record as 84.9 ± 0.3%. Moreover, the “% Lactone” value in series [4] (PBS pH 7.4, 24 hours) is recorded as 30.9 ± 2.0%. In series [5], the “underestimation of human blood lactone level by mouse blood” value was 6%, the “Ratio of Lactone Level Mouse/Human” value is 0.9 and the “Percent Lactone in Mouse Blood” value came out at 80%. Also, the “increase of lipophilicity for DMPC membranes relative to topotecan” value in series [6] (1 μM, pH 7.4) was “over 1,400 fold”. Besides, in series [6], the “KDMPC overall association constant” value turned out to be 14400 M⁻¹.
As to `CCC1(O)CC(=O)OCc2c1cc1n(c2=O)Cc2c-1nc1ccc(N)cc1c2[Si](C)(C)C(C)(C)C` (racemic) [DB-90, 5-Ethyl-1,4,5,13-tetrahydro-5-hydroxy-10-amino-12-tert-butyldimethylsilyl-3H,15H-oxepino[3′,4′:6,7]indolizino[1,2-b]quinoline-3,15-dione], the “% Lactone” value is recorded as 71.1 ± 3.5% in series [1]; 83.7 ± 0.5% in series [4] (PBS pH 7.4, 3 hours); 26.1 ± 1.0% in series [4] (PBS pH 7.4, 24 hours). Moreover, the IC50 in series [2] was 0.073 ± 0.008 µM. Besides, the “KDMPG overall association constant” value in series [3] was determined as 9300 M⁻¹. For the same compound, the “Ratio of Lactone Level Mouse/Human” value in series [5] came out at 0.7. Besides, the “Percent Lactone in Mouse Blood” value in series [5] came to 61%. Besides, in series [6], the “decrease in DMPC binding upon ring opening (lactone vs carboxylate)” value is 10 fold. The “KDMPC overall association constant” value in series [6] came to 8600 M⁻¹.
On to `CCC1(O)CC(=O)OCc2c1cc1n(c2=O)Cc2c-1nc1ccc(O)cc1c2[Si](C)(C)C(C)(C)C` (racemic) [DB-91, 5-Ethyl-1,4,5,13-tetrahydro-5-hydroxy-10-hydroxy-12-tert-butyldimethylsilyl-3H,15H-oxepino[3′,4′:6,7]indolizino[1,2-b]quinoline-3,15-dione], for which the “% Lactone” value in series [1] worked out at 61.5 ± 3.9%. For the same compound, in series [2], the IC50 was determined as 0.115 ± 0.005 µM. Also, the “KDMPG overall association constant” value in series [3] turned out to be 4300 M⁻¹. Besides, the “% Lactone” value in series [4] (PBS pH 7.4, 3 hours) turned out to be 83.1 ± 0.3%. Further, the “% Lactone” value in series [4] (PBS pH 7.4, 24 hours) is on record as 32.2 ± 1.0%. Also, in series [5], the “underestimation of human blood lactone level by mouse blood” value was 20%, the “Ratio of Lactone Level Mouse/Human” value was determined as 0.8 and the “Percent Lactone in Mouse Blood” value was 70%. For the same compound, in series [6], the “decrease in DMPC binding upon ring opening (lactone vs carboxylate)” value is on record as 10 fold.

Source of the values: patent publication US7538220B2, “Intermediates in the preparation of homocamptothecin analogs” (University of Pittsburgh - of the Commonwealth System of …, priority 1999, dated 2009).
